Results taken from the CheMixHub viscosity set.

Experiment: xn = mol fraction of the nth substance listed

CCCCCCCCC(=O)O + CCCCCC(=O)[O-].[Na+]
100 kPa, x2 = 0.3
Details | viscosity [mPa·s]
293.15 K | 280.5
298.15 K | 209
303.15 K | 158.8
308.15 K | 122.9
313.15 K | 96.5
318.15 K | 76.9
323.15 K | 62.2

CC1COC(=O)O1 (stereo not drawn) + CS(C)=O
308.15 K, 101 kPa
Details | viscosity [mPa·s]
x2 = 0.0506 | 2.025
x2 = 0.1139 | 1.973
x2 = 0.2014 | 1.907
x2 = 0.2976 | 1.842
x2 = 0.382 | 1.794
x2 = 0.4759 | 1.746
x2 = 0.5376 | 1.719
x2 = 0.6343 | 1.684
x2 = 0.7176 | 1.659
x2 = 0.7898 | 1.645
x2 = 0.8643 | 1.64
x2 = 0.9376 | 1.639

Brc1ccc2[n-]cnc2c1.CCCCCCCCCCCCCC[P+](CCCCCC)(CCCCCC)CCCCCC + COCCOCCOCCOCCOC
viscosity [mPa·s], 100 kPa
Details | 293.15 K | 298.15 K | 303.15 K | 308.15 K | 313.15 K | 318.15 K | 323.15 K
x1 = 0.362 | 62 | – | – | – | – | – | –
x1 = 0.522 | 164 | 125 | 98 | 77 | 63 | 51 | –
x1 = 0.654 | 301 | 222 | 167 | 129 | 101 | 81 | 66
x1 = 0.782 | 631 | 449 | 326 | 243 | 185 | 143 | 114
x1 = 0.862 | 972 | 675 | 481 | 351 | 261 | 199 | 155
x1 = 0.898 | 1190 | 813 | 572 | 413 | 304 | 230 | 177

CC(C)=O + C1CCCCC1
viscosity [mPa·s], 101.33 kPa
Details | 293.15 K | 298.15 K | 303.15 K | 307.35 K
x1 = 0.091 | – | – | – | 0.662
x1 = 0.3116 | – | – | – | 0.512
x1 = 0.3949 | – | – | – | 0.461
x1 = 0.4589 | – | – | – | 0.431
x1 = 0.5299 | – | – | – | 0.402
x1 = 0.7897 | – | – | – | 0.323
x2 = 0.049 | 0.329 | 0.313 | 0.299 | –
x2 = 0.0917 | 0.336 | 0.32 | 0.305 | –
x2 = 0.1959 | 0.361 | 0.343 | 0.326 | –
x2 = 0.2889 | 0.392 | 0.371 | 0.352 | –
x2 = 0.4092 | 0.443 | 0.417 | 0.394 | –
x2 = 0.5009 | 0.486 | 0.456 | 0.429 | –
x2 = 0.5984 | 0.544 | 0.509 | 0.477 | –
x2 = 0.7007 | 0.621 | 0.578 | 0.54 | –
x2 = 0.8046 | 0.7 | 0.65 | 0.606 | –
x2 = 0.9051 | 0.818 | 0.756 | 0.701 | –
x2 = 0.958 | 0.895 | 0.829 | 0.762 | –

CC1COC(=O)O1 (stereo not drawn) + CCCCCCCO
298.15 K, 101 kPa
Details | viscosity [mPa·s]
x1 = 0.0321 | 4.755
x1 = 0.1202 | 4.481
x1 = 0.1934 | 4.281
x1 = 0.2735 | 4.035
x1 = 0.3226 | 3.909
x1 = 0.4002 | 3.709
x1 = 0.4717 | 3.534
x1 = 0.5334 | 3.39
x1 = 0.6111 | 3.217
x1 = 0.699 | 3.031
x1 = 0.7602 | 2.909
x1 = 0.8226 | 2.789
x1 = 0.8925 | 2.662
x1 = 0.9674 | 2.529

Cc1ccccc1 + CCCCO
viscosity [mPa·s]
Details | 298.15 K | 303.15 K | 308.15 K | 313.15 K | 318.15 K
101 kPa, x1 = 0.092 | 2.01 | 1.769 | 1.581 | 1.393 | 1.292
101 kPa, x1 = 0.1987 | 1.59 | 1.459 | 1.323 | 1.199 | 1.106
101 kPa, x1 = 0.2983 | 1.279 | 1.181 | 1.076 | 0.9827 | 0.9514
101 kPa, x1 = 0.393 | 1.084 | 1.004 | 0.9192 | 0.8418 | 0.8198
101 kPa, x1 = 0.5091 | 0.8978 | 0.8372 | 0.7739 | 0.714 | 0.7048
101 kPa, x2 = 0.12 | 0.56 | – | – | – | –
101 kPa, x2 = 0.24 | 0.635 | – | – | – | –
101 kPa, x2 = 0.35 | 0.715 | – | – | – | –
101 kPa, x2 = 0.45 | 0.84 | – | – | – | –
101 kPa, x2 = 0.55 | 0.997 | – | – | – | –
101 kPa, x2 = 0.65 | 1.199 | – | – | – | –
101 kPa, x2 = 0.74 | 1.441 | – | – | – | –
101 kPa, x2 = 0.83 | 1.73 | – | – | – | –
101 kPa, x2 = 0.92 | 2.12 | – | – | – | –
101.33 kPa, x1 = 0.0859 | – | 1.86 | 1.656 | 1.489 | –
101.33 kPa, x1 = 0.2006 | – | 1.452 | 1.311 | 1.193 | –
101.33 kPa, x1 = 0.2972 | – | 1.175 | 1.065 | 0.979 | –
101.33 kPa, x1 = 0.3877 | – | 0.999 | 0.911 | 0.84 | –
101.33 kPa, x1 = 0.5025 | – | 0.833 | 0.77 | 0.713 | –
101.33 kPa, x1 = 0.6013 | – | 0.726 | 0.675 | 0.629 | –
101.33 kPa, x1 = 0.7617 | – | 0.59 | 0.557 | 0.524 | –
101.33 kPa, x1 = 0.8121 | – | 0.571 | 0.534 | 0.507 | –
101.33 kPa, x1 = 0.947 | – | 0.526 | 0.498 | 0.478 | –

CC1COC(=O)O1 (stereo not drawn) + CCCCO
298 K, 101.3 kPa
Details | viscosity [mPa·s]
x1 = 0.0202 | 2.541
x1 = 0.0403 | 2.511
x1 = 0.0604 | 2.482
x1 = 0.08 | 2.452
x1 = 0.1006 | 2.423
x1 = 0.2005 | 2.287
x1 = 0.3006 | 2.167
x1 = 0.4003 | 2.074
x1 = 0.5 | 2.016
x1 = 0.6001 | 1.999
x1 = 0.7 | 2.031
x1 = 0.8004 | 2.12
x1 = 0.9 | 2.271

CC(=O)Oc1ccccc1C(=O)O + CCCCO
viscosity [mPa·s], 101 kPa
Details | x1 = 0.0007 | x1 = 0.00094 | x1 = 0.00118 | x1 = 0.00141 | x1 = 0.00165 | x1 = 0.00189 | x1 = 0.00236
293.15 K | 2.93 | 2.931 | 2.932 | 2.933 | 2.934 | 2.935 | 2.938
298.15 K | 2.57 | 2.571 | 2.572 | 2.573 | 2.574 | 2.575 | 2.576
303.15 K | 2.26 | 2.262 | 2.262 | 2.263 | 2.264 | 2.265 | 2.266
308.15 K | 2.001 | 2.002 | 2.003 | 2.005 | 2.005 | 2.007 | 2.009
310.15 K | 1.9 | 1.901 | 1.901 | 1.902 | 1.903 | 1.903 | 1.905
313.15 K | 1.766 | 1.767 | 1.767 | 1.768 | 1.768 | 1.769 | 1.769
